Data set [1] relates to L5 SNL rats, tactile allodynia. Put plainly: L5-Single Nerve Ligation model of neuropathic pain (von Frey). The following applies: 30 mg/kg; for antiallodynic activity: i.p. Type of data set: in vivo, rat. Here is the method:
Protocol. […] The test animals were placed in a Plexiglas chamber (10 cm×20 cm×25 cm) and habituated for 15 minutes. The chamber was positioned on top of a mesh screen so that von Frey monofilaments could be presented to the plantar surface of both hindpaws. Measurement of tactile sensitivity for each hindpaw were obtained using the up/down method (Dixon, 1980) with seven Frey monofilaments (0.4, 1, 2, 4, 6, 8 and 15 grams). Each trial started with a von Frey force of 2 grams delivered to the right hindpaw for approximately 1-2 seconds and then the left hindpaw. If there was no withdrawal response, the next higher force was delivered. If there was a response, the next lower force was delivered. This procedure was performed until no response was made at the highest force (15 grams) or until four stimuli were administered following the initial response. Each test group contained 8 animals. The sham-operated control group, which were operated on but not subject to nerve ligation, contained 4 animals. All animals were tested at 60 minutes, and 240 minutes, post-administration of test compounds.
The 50% paw withdrawal threshold for each paw was calculated using the following formula: [Xth] log=[vFr] log+ky where [vFr] is the force of the last von Frey used, k=0.2249 which is the average interval (in log units) between the von Frey monofilaments, and y is a value that depends upon the pattern of withdrawal responses (Dixon, 1980). […] Testing for tactile sensitivity was performed twice and the mean 50% withdrawal value assigned as the tactile sensitivity for the right and left paws for each animal.
The E-10-OH-NT compounds were administered as either a maleate or succinate salt. AT was administered as a hydrochloride salt. Dosage amounts are based on the amount of free base. The test animals were placed in a Plexiglas chamber (10 cm×20 cm×25 cm) and habituated for 15 minutes. The chamber was positioned on top of a mesh screen so that von Frey monofilaments could be presented to the plantar surface of both hindpaws. Measurement of tactile sensitivity for each hindpaw were obtained using the up/down method (Dixon, 1980) with seven Frey monofilaments (0.4, 1, 2, 4, 6, 8 and 15 grams). Each trial started with a von Frey force of 2 grams delivered to the right hindpaw for approximately 1-2 seconds and then the left hindpaw. If there was no withdrawal response, the next higher force was delivered. If there was a response, the next lower force was delivered. This procedure was performed until no response was made at the highest force (15 grams) or until four stimuli were administered following the initial response. Each test group contained 8 animals. The sham-operated control group, which were operated on but not subject to nerve ligation, contained 4 animals. […]

The next data set addresses T1, α2b adrenergic receptor (Homo sapiens, UniProt P18089).
T1 construct: expressed in transfected cells; host or cells: CHO cells
Kind of data set: α2b adrenergic receptor binding, [3H]RX821002. The following applies: read-out: Affinity at α2b adrenergic receptor, Ki. As for the experimental part:
Nonspecific binding was determined in the presence of 100 μM (−)-epinephrine. Bound radioactivity was determined by scintillation spectroscopy.

Data set [2] addresses T2, human muscarinic receptor M1 (Homo sapiens, UniProt P11229).
T2 construct: expressed in transfected cells; host or cells: CHO cells (membranes)
Kind of data set: Muscarinic M1 receptor binding, [3H]pirenzepine. The following applies: read-out: Affinity for Muscarinic Receptors, M1, Ki. As for the experimental part:
(§1) Protocol. […] Bound radioactivity was determined by scintillation spectroscopy. Non-specific binding was defined as the amount of bound radioligand in the presence of 1.0 μM atropine. Radioligand for the M1 receptor was [^3H]pirenzepine (2 nM). Radioligand for the M2 receptor was [^3H]AF-DX384 (2 nM). Radioligand for the M3, M4, and M5 receptors was [^3H]4-DAMP.

The target in data set [3] is T3, human muscarinic receptor M3 (Homo sapiens, UniProt P20309).
T3 construct: expressed in transfected cells; host or cells: CHO cells (membranes)
T3 sequence (P20309 whole entry): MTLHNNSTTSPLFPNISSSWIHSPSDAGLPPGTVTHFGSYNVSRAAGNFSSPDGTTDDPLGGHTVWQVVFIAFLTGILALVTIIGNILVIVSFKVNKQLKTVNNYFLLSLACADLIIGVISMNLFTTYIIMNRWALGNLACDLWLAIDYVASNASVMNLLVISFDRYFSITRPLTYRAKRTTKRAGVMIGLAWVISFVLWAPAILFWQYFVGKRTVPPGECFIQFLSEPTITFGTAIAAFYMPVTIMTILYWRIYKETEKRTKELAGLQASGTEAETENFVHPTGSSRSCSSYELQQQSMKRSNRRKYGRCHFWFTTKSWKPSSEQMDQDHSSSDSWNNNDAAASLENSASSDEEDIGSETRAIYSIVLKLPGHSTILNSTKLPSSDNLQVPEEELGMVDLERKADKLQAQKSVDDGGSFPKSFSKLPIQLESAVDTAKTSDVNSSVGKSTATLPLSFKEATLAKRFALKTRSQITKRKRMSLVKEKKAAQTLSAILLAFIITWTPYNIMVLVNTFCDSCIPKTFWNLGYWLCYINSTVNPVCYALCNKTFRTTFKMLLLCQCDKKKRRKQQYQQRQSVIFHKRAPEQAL
Put plainly: Muscarinic M3 receptor binding, [3H]4-DAMP. The following applies: read-out: Affinity for Muscarinic Receptors, M3, Ki. As for the experimental part:
as §1

For data set [4], the target named is T4, human serotonin transporter (hSERT) (Homo sapiens, UniProt P31645).
T4 construct: expressed in transfected cells; host or cells: CHO cells (membranes)
T4 sequence (P31645 whole entry): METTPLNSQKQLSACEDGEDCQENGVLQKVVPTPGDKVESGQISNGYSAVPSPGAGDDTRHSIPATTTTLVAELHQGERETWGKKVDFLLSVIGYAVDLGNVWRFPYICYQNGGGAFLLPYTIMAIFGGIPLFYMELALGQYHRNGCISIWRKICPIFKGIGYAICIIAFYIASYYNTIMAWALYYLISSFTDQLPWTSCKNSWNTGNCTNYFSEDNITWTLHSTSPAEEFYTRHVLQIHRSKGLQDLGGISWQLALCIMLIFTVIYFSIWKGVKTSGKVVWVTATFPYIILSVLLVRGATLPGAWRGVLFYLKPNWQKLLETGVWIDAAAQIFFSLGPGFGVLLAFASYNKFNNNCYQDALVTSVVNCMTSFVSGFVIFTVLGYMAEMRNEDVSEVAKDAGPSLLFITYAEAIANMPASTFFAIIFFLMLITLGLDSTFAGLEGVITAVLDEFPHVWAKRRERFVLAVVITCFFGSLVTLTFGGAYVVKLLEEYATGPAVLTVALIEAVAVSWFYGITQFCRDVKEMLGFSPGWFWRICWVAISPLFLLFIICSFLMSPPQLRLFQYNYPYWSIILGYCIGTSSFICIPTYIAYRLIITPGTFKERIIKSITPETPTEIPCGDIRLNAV
Kind of data set: 5HT transporter competitive binding assay, [3H]imipramine. As for the experimental part:
(§2) Bound radioactivity was determined by scintillation spectroscopy. […] The Ki values of the various test compounds were determined using standard methods.
as §2

Data set [5] has as its system gastrointestinal transit in Swiss-Webster mice. Kind of data set: Mouse gastrointestinal transit (charcoal meal) assay. Type of data set: in vivo. The following applies: relative to sterile water vehicle, 1, 2 or 4 hours before charcoal meal. As for the experimental part: Protocol. The inhibitory effect of AT, NT and (−)-E-10-OH-NT were assessed in a rodent model of gastrointestinal transit. For the assay, male Swiss-Webster mice (20-25 g) were fasted overnight and treated with test compound or sterile water vehicle control 1, 2 or 4 hours before per oral administration of a charcoal meal consisting of charcoal:flour:water (1:2:8, w:w:w). Gastrointestinal transit was measured 25 minutes after the charcoal meal. (−)-E-10-OH-NT was administered as either the maleate or succinate salt; AT and NT were administered as hydrochloride salts; the dosage amounts are based on the amount of free base.
Gastrointestinal transit (GIT) was determined by removing the entire length of the small intestine and measuring how far the leading edge of the charcoal meal traveled in the small intestine. The percent GIT (% GIT) was determined by the following formula:
% GIT=[distance to charcoal leading edge (cm)/length of small intestine (cm)×100]

Where [6] appears, read: Example 4, read-out: Monoamine Transporter Affinity, 5HT, Ki.

Entries after “also recorded” stand apart in the source; their conditions may differ. Like-named read-outs stand apart in the source and are kept apart here.

T2 sequence (P11229 whole entry): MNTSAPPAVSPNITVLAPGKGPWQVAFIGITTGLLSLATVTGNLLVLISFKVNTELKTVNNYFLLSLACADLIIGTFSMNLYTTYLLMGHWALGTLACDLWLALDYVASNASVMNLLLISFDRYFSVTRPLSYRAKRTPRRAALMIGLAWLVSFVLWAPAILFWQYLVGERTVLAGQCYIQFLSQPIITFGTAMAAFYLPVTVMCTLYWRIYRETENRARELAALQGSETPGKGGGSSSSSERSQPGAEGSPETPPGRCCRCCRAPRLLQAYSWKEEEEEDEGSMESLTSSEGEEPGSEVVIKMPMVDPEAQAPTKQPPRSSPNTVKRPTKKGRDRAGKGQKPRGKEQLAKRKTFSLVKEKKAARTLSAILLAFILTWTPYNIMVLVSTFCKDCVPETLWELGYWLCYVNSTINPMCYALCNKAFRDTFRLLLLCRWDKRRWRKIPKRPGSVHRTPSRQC
T1 sequence (P18089 whole entry): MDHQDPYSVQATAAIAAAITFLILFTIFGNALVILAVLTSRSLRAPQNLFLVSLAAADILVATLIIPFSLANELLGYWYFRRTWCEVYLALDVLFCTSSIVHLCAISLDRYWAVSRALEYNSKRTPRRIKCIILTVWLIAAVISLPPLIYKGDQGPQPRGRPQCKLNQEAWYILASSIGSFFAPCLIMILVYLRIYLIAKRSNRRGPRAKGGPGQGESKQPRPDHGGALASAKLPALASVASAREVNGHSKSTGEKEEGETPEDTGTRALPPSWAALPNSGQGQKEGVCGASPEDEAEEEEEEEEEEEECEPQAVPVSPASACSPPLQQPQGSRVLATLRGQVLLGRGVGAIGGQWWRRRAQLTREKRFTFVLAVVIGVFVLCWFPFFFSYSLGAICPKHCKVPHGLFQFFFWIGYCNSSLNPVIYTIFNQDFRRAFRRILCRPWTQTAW

On to `CNCC/C=C1\c2ccccc2C[C@H](O)c2ccccc21` (stereo in doubt) [(+)-E-10-OH-NT], for which, in data set [1], the antiallodynic activity entry is on record as “comparable to that of the vehicle-only control”. The Ki (usually the dissociation constant of the complex between target and ligand, obtained from inhibition or displacement) at α2b adrenergic receptor was 4200 nM; in data set [2] it was 710 nM; in data set [3] it was 820 nM; in data set [4] (setting [6]), 400 nM; in data set [4] (Example 14, read-out: SERT Ki), 361 nM.

As for `CNCC/C=C1\c2ccccc2C[C@@H](O)c2ccccc21` (stereo in doubt) [(−)-E-10-OH-NT], the “inhibition of gastrointestinal transit (% GIT)” value in data set [5] is “markedly lower inhibition of transit as compared to both AT and NT”. Further, the antiallodynic activity entry in data set [1] is “statistically significant over that observed for the vehicle-treated control group; also recorded: greater than that observed for the vehicle-treated control group”. Further, the “antiallodynic activity, oral” value in data set [1] (p.o. and 60 mg/kg p.o.) is “greater than that observed for the vehicle-treated control”. In addition, the Ki on α2b adrenergic receptor is 4300 nM; in data set [2], 410 nM; in data set [3], 390 nM; in data set [4] (setting [6]), 660 nM; in data set [4] (Example 14, read-out: SERT Ki), 617 nM.

The values are drawn from patent US20120178815A1, “Compositions of (-)-E-10-OH-NT and Methods for Their Synthesis and Use” (Adolor Corporation, priority 2007, published 2012).
